This note sets out measurements from patent publication US20250051362A1, “SUBSTITUTED FUSED HETEROCYCLIC COMPOUND, AND PREPARATION METHOD THEREFOR AND USE THEREOF” (Shanghai Annova Biotechnology Co., Ltd., priority 2021, published 2025).

In assay [1] the test system is human colon cancer LoVo cells. The assay is described as follows: Cell proliferation inhibition assay (CellTiter-Glo). The format is cell-based. The note with it: LoVo cells, 96 hours incubation; for Emax: read-out: Max Inhibition. From the text: Experimental method: A CellTiter-Glo cell viability assay kit was used to test the inhibitory effect of the compounds on the in vitro proliferation of human colon cancer LoVo cells.
Experimental materials: LoVo cells (ATCC, Cat. No. CCL-29); F-12K medium (Invitrogen, Cat. No. 21127-022); fetal bovine serum (Biological Industries, Cat. No. 04-002-1A); GlutaMAX (Gibco, Cat. No. 35050-061); 0.25% trypsin-EDTA (Invitrogen, Cat. No. 25200-072); CellTiter-Glo kit (Promega, Cat. No. G7558).
Experimental procedure: (1) F-12K medium, fetal bovine serum and GlutaMAX were formulated into a complete medium for culturing LoVo cells; (2) well-grown LoVo cells were taken, digested with trypsin and transferred to a centrifuge tube, and centrifuged; the supernatant was discarded, and cells were resuspended by adding a fresh medium and counted by a Vi-CELL XR cell counter; the density of the cell suspension was adjusted to 25,000 to 30,000 cells/mL, and the cell suspension was added at 100 μL/well in a 96-well cell culture plate, while a blank control group was set up with no cells added, and the cell culture plate was incubated in a carbon dioxide incubator overnight; (3) a DMSO solution of the compound to be tested was dispensed into the above 96-well cell culture plate using an HP D300 ultra-micro sampler, with 0.5 μL of the solution per well and 10 concentrations for each compound (3× dilution), while a DMSO control group with no compound added was set up, and the plate was continued to be incubated in a carbon dioxide incubator for 96 hours; (4) the cell culture plate was taken out and equilibrated to room temperature, with 100 μL of a CellTiter-Glo reagent added to each well, and then the plate was kept away from light, shaken for 10 minutes and then incubated for 10 minutes; (5) the cell culture plate was put into EnSpire for plate reading, and the luminescence value RLU was recorded.
Data processing: (1) The inhibition rate was calculated from the luminescence values: “RLUDMSO” is the luminescence value of the DMSO control group without compound, “RLUblank” is the luminescence value of the blank control group without cells, and “RLUcompound” is the luminescence value of the compound test group, and the inhibition rate=[1−(RLUcompound−RLUblank)/(RLUDMSO−RLUblank)]×100%; (2) with curve fitting using the Excel add-on XLFit, the IC50 value was calculated.
(Cellular ATP, detected with luciferase, serves as a proxy for viable cell number.)

In the next assay the target is ATR kinase (Homo sapiens (Human), UniProt Q13535). Description: In vitro ATR kinase inhibition assay (Mobility Shift Assay, Caliper EZ Reader). The assay is classed as biochemical. The note with it: ATP concentration of Km; 4 h at 28° C. As for the experimental part:
Experimental method: The inhibitory activity of the compounds on ATR kinase in vitro was determined by Mobility Shift Assay at an ATP concentration of Km using Caliper EZ Reader as a mobility shift assaying technology based on microfluidic chip technology.
Experimental procedure: (1) The compounds to be tested were dissolved in DMSO and serially diluted 4× for a total of 10 concentrations; (2) 0.06 μL of the compounds at different concentrations were pipetted into a 384-well plate using an Echo pipetting system; (3) a 2× kinase solution with a concentration of 10 nM ATR kinase was prepared from the ATR kinase and the 1× kinase buffer; and a 2× substrate solution with a concentration of 6 μM 5-FAM-AK-17 and 4 μM ATP was prepared from 5-FAM-AK-17, ATP and the 1× kinase buffer; (4) 10 μL of the 2× kinase solution was added into the 384-well plate and incubated for 10 min at room temperature; 10 μL of the 2× substrate solution was then added and incubated for 4 h at 28° C.; (5) 30 μL of the termination buffer was added to terminate the reaction, and then the 384-well plate was put into the Caliper EZ Reader to read the conversion rate data.

SMILES strings stand for the structures.

ATR kinase, sequence (Q13535 whole entry): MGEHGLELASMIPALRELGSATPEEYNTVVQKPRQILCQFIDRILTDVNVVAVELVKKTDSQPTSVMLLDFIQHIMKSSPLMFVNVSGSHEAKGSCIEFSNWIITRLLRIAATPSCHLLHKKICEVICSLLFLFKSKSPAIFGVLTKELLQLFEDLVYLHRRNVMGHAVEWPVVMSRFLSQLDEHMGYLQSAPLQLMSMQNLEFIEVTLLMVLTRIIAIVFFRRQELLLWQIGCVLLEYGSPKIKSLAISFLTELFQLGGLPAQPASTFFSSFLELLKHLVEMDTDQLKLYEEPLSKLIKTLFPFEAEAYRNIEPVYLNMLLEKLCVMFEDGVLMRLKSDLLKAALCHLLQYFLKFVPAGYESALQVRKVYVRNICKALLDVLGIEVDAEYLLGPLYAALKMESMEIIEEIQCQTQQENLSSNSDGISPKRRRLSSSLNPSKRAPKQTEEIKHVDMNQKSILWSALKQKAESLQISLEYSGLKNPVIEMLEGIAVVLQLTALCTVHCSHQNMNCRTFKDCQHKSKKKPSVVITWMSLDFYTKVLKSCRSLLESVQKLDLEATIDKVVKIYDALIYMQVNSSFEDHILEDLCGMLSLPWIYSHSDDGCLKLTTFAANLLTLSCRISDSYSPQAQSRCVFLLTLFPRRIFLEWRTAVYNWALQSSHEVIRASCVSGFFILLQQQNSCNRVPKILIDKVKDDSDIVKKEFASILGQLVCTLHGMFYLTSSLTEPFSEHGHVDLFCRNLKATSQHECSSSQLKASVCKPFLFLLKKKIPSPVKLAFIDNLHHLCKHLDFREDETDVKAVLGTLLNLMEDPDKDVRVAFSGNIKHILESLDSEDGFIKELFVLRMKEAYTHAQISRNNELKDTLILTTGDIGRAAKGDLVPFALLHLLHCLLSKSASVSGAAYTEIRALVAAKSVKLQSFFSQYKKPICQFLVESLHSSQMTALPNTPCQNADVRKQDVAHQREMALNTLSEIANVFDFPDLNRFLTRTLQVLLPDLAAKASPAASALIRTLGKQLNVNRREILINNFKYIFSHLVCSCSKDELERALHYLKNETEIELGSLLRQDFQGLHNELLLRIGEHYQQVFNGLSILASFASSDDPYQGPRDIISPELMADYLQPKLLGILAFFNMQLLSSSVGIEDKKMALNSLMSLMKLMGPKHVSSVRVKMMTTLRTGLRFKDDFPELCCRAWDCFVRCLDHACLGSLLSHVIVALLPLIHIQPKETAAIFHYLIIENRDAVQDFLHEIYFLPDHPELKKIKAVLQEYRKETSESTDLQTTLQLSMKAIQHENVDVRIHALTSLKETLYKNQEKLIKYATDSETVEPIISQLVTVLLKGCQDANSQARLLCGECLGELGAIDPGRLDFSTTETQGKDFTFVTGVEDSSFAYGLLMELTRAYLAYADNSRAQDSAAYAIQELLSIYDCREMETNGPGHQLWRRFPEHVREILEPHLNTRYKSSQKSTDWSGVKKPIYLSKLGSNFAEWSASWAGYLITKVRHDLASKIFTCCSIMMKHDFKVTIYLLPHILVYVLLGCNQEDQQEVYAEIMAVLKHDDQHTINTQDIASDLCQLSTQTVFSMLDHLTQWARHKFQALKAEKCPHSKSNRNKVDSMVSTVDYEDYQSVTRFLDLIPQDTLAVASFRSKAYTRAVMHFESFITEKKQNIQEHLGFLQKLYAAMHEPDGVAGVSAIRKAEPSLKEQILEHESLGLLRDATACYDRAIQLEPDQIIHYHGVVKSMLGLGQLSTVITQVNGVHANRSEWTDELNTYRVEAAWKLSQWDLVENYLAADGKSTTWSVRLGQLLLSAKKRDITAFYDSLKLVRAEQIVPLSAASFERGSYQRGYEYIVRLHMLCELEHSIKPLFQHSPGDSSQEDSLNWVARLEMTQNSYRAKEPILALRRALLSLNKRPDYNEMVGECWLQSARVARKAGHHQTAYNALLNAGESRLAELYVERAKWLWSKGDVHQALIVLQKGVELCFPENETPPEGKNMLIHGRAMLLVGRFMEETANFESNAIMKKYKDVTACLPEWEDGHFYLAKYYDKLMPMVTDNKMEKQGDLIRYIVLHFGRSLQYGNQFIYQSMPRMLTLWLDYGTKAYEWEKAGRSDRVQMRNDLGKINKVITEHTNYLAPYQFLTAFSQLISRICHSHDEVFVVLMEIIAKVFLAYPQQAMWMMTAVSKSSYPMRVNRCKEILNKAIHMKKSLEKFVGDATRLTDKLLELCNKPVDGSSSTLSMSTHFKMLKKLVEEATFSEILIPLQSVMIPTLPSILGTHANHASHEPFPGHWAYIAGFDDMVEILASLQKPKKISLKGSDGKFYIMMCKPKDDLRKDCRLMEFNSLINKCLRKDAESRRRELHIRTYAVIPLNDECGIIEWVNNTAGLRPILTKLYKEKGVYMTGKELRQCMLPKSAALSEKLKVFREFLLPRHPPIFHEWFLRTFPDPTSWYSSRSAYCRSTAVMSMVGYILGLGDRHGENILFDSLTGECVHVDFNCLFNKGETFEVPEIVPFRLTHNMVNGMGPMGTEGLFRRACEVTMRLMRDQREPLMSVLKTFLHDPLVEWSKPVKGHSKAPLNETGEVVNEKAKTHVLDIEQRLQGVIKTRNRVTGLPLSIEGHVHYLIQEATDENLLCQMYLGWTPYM
ATR kinase, sequence (Q8WXE1 whole entry partner): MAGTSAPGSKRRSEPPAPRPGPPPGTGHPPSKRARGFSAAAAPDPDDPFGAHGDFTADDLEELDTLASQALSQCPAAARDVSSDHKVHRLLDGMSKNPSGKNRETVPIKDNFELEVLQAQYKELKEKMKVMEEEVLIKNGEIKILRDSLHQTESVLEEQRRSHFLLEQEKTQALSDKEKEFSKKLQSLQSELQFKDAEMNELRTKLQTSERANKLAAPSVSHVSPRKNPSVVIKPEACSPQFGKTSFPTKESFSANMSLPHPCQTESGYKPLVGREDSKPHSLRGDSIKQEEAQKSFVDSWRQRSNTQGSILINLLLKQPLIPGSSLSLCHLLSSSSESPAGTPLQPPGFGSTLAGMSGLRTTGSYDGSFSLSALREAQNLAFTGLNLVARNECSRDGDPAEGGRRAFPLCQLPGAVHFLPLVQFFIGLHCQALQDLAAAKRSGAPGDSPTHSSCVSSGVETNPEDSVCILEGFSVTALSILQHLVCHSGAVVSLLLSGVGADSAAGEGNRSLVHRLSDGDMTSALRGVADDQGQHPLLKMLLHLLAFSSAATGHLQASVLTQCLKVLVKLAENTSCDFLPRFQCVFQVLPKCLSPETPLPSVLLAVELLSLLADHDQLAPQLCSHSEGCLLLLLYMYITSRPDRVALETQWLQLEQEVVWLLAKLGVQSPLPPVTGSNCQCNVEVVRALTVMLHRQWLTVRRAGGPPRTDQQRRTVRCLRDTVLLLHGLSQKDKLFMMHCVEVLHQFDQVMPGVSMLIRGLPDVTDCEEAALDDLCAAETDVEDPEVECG

For orientation: IC50 means the concentration needed to halve the response being measured. Consider `C[C@@H]1COCCN1c1nc(-c2cc(F)cc3[nH]ccc23)nc2c1ccn2S(C)(=O)=O` [Compound 20, (R)-4-(2-(6-fluoro-1H-indol-4-yl)-7-(methylsulfonyl)-7H-pyrrolo[2,3-d]pyrimidin-4-yl)-3-methylmorpholine], for which the Emax in assay [1] (Homo sapiens) turned out to be 91%. For the same compound, the IC50 on ATR kinase turned out to be 1.6 nM.
Turning to `C[C@@H]1COCCN1c1nc(-c2ccnc3[nH]ccc23)nc2c1ccn2S(=O)(=O)CCO` [Compound 21, (R)-2-((4-(3-methylmorpholinyl)-2-(1H-pyrrolo[2,3-b]pyridin-4-yl)-7H-pyrrolo[2,3-d]pyrimidin-7-yl)sulfonyl)ethanol], the half-inhibitory concentration (IC50) in assay [1] was 710 nM; on ATR kinase, 4.4 nM. Further, the “Max Inhibition” value in assay [1] was 92%.
`C[C@@H]1COCCN1c1nc(-c2ccnc3[nH]ccc23)nc2c1ncn2S(C)(=O)=O` [Compound 22, (R)-3-methyl-4-(9-(methylsulfonyl)-2-(1H-pyrrolo[2,3-b]pyridin-4-yl)-9H-purin-6-yl)morpholine]: the Emax in assay [1] (Homo sapiens) is 93%. Besides, at ATR kinase, the half-maximal inhibitory concentration (IC50) amounted to 10 nM.
In the case of `C[C@@H]1COCCN1c1nc(-c2ccnc3[nH]ccc23)nc2c1cnn2S(C)(=O)=O` [Compound 23, (R)-3-methyl-4-(1-(methylsulfonyl)-6-(1H-pyrrolo[2,3-b]pyridin-4-yl)-1H-pyrazolo[3,4-d]pyrimidin-4-yl)morpholine], the IC50 in assay [1] (Homo sapiens) was found to be 740 nM; on ATR kinase, 15 nM. Further, the Emax in assay [1] (Homo sapiens) was determined as 92%.
Consider `C[C@@H]1COCCN1c1cc(-c2ccnc3[nH]ccc23)nc2c1ncn2S(C)(=O)=O` [Compound 24, (R)-3-methyl-4-(3-(methylsulfonyl)-5-(1H-pyrrolo[2,3-b]pyridin-4-yl)-3H-imidazo[4,5-b]pyridin-7-yl)morpholine], for which, in assay [1] (Homo sapiens), the Emax worked out at 92%. Moreover, on ATR kinase, the IC50 was found to be 15 nM.
For `C[C@@H]1COCCN1c1nc(-c2cncc3[nH]ccc23)cc2c1ncn2S(C)(=O)=O` [Compound 25, (R)-3-methyl-4-(1-(methylsulfonyl)-6-(1H-pyrrolo[2,3-c]pyridin-4-yl)-1H-imidazo[4,5-c]pyridin-4-yl)morpholine], in that order: 89% and 9.4 nM.
With `C[C@@H]1COCCN1c1nc(-c2ccnc3[nH]ccc23)cc2c1ccn2S(C)(=O)=O` [Compound 26, (R)-3-methyl-4-(1-(methylsulfonyl)-6-(1H-pyrrolo[2,3-b]pyridin-4-yl)-1H-pyrrolo[3,2-c]pyridin-4-yl)morpholine], in assay [1] (Homo sapiens), the Emax turned out to be 92%. Besides, the half-inhibitory concentration (IC50) at ATR kinase amounted to 8.6 nM.
As to `C[C@@H]1COCCN1c1nc(-c2nc3ccccc3[nH]2)nc2c1ccn2S(C)(=O)=O` [Compound 27, (R)-4-(2-(1H-benzo[d]imidazol-2-yl)-7-(methylsulfonyl)-7H-pyrrolo[2,3-d]pyrimidin-4-yl)-3-methylmorpholine], in assay [1] (Homo sapiens), the Emax is 94%. Besides, the 50% inhibitory concentration (IC50) on ATR kinase came out at 1.6 nM.
On to `CNc1nc2ccccc2n1-c1nc(N2CCOC[C@H]2C)c2ccn(S(C)(=O)=O)c2n1` [Compound 28, (R)-N-methyl-1-(4-(3-methylmorpholinyl)-7-(methylsulfonyl)-7H-pyrrolo[2,3-d]pyrimidin-2-yl)-1H-benzo[d]imidazol-2-amine], for which, in assay [1], the half-maximal inhibitory concentration (IC50) is 100 nM and the “Max Inhibition” value was determined as 92%. The IC50 at ATR kinase was found to be 4.1 nM.
Turning to `Cc1cc(-c2nc(N3CCOC[C@H]3C)c3ccn(S(C)(=O)=O)c3n2)c2cc[nH]c2c1` [Compound 29, (R)-3-methyl-4-(2-(6-methyl-1H-indol-4-yl)-7-(methylsulfonyl)-7H-pyrrolo[2,3-d]pyrimidin-4-yl)morpholine], the Emax in assay [1] (Homo sapiens) amounted to 94%. In addition, at ATR kinase, the concentration for half-maximal inhibition (IC50) is 2.3 nM.
As for `C[C@@H]1COCCN1c1nc(-c2cc(C#N)cc3[nH]ccc23)nc2c1ccn2S(C)(=O)=O` [Compound 30, (R)-4-(4-(3-methylmorpholinyl)-7-(methylsulfonyl)-7H-pyrrolo[2,3-d]pyrimidin-2-yl)-1H-indol-6-carbonitrile], in assay [1], the concentration for half-maximal inhibition (IC50) was found to be 1060 nM and the “Max Inhibition” value amounted to 93%. For the same compound, the IC50 on ATR kinase is 9.4 nM.
